Reference: patent US6451789B1, “1-aza-2-alky-6-aryl-cycloalkanes” (Les Labortoires Servier, priority 1999, dated 2002)

How the values were obtained:
Assay type in all cases: in vivo
NMRI mouse = assay: Abdominal contractions induced by phenyl-p-benzoquinone (PBQ) in the NMRI mouse; conditions: IP, PBQ at t=30 min, cramps counted t=35-45 min
Method: Abdominal Contractions Induced by Phenyl-p-Benzoquinone (PBQ) in the NMRI Mouse
Intraperitoneal administration of an alcoholic solution of PBQ causes abdominal cramps in the mouse (SIEGNUND et al., Proc. Soc. Exp. Biol., 1957, 95, 729-731). The cramps are characterized by repeated contractions of the abdominal musculature, accompanied by extension of the hind limbs. Most analgesics antagonise these abdominal cramps (COLLIER et al., Brit. J. Pharmacol. Chem., 1968, 32, 295-310). At t=0 min., the animals are weight and the compound being studied is administered by the IP route. A group of contol animals is given the solvent used for the compound. At t=30 min., an alcoholic solution of PBQ (0.2%) is administered by the IP route in a volume of 0.25 ml/mouse. Immediately after administration of the PBQ, the animals are placed in cylinders of plexiglass (L=19.5 cm; I.D.=5 cm). From t=35 min. to t=45 min., the animals' reaction is observed and the experimenter notes the total number of abdominal cramps per animal. The Table hereinbelow gives the percentage inhibition of the number of abdominal cramps measured in the control animals, at the active dose of the compound studied.

Wistar rat [1] = assay: Object recognition in the Wistar rat; conditions: 30 minutes before each session, 24 hours between sessions
Description: Object Recognition in the Wistar Rat
The object recognition test in the Wistar rat was initially developed by ENNACEUR and DELACOUR (Behav. Brain Res., 1988, 31, 47-59). The test is based on the spontaneous exploratory activity of the animal and has he characteristics of episodic memory in humans. This memory test is sensitive to ageing (SCALI et al., Eur. J. Pharmacol., 1997, 325, 173-180) and to cholinergic dysfunctions (BARTOLINI et al., Pharm. Biochem. Behav. 1996, 53(2), 277-283) and is based on the differences in the exploration of 2 objects of fairly similar shape—one familiar, the other new. Prior to the test, the animals are habituated to the environment (an enclosure without an object). In the course of a first session, the rats are placed (3 minutes) in the enclosure, in which there are 2 identical objects. The duration of exploration is measured for each object. In the course of the second session (3 minutes), 24 hours later, 1 of the 2 objects is replaced by a new object. The duration of exploration is measured for each object. The assessment criterion is the difference, Delta, expressed in seconds, between the exploration times for the new object and for the familiar object in the course of the second session.
The Table hereinbelow gives the difference, Delta, expressed in seconds, between the exploration times of the 2 objects.

Wistar rat [2] = assay: Social recognition in the Wistar rat; conditions: intraperitoneal route, dose 3 mg/kg, second encounter after 2 hours
Description: Social Recognition in the Wistar Rat
Initially described in 1982 by THOR and HOLLOWAY, (J. Comp. Physiol., 1982, 96, 1000-1006), the social recognition test has subsequently been proposed by various authors (DANTZER et al., Psychopharmacology, 1987, 91, 363-368; PERIO et al., Psycho-pharmacology, 1989, 97, 262-268) for studying the mnemocognitive effects of new compounds. The test is based on the natural expression of the olfactory memory of the rat and its natural tendency to forget and allows evaluation of memorisation, by recognition of a young congeneric animal, by an adult rat. A young rat (21 days), taken at random, is placed for 5 minutes in the cage housing an adult rat. With the aid of a video device, the experimenter observes the social recognition behaviour of the adult rat and measures its overall duration. The young rat is then removed from the adult rat's cage and is placed in its own cage until the second introduction. The adult rat is given the compound under test by intraperitoneal route and, after 2 hours, is again brought into the presence (5 minutes) of the young rat. The social recognition behaviour is then observed again and its duration measured.
The Table hereinbelow gives the difference (T2—T1), expressed in seconds, between the “recognition” times of the 2 encounters.

Compound: CC1=CC(=O)CC(c2ccc(Cl)c(Cl)c2)N1 (racemic) [Example 26, (±)-2-(3,4-Dichlorophenyl)-6-methyl-2,3-dihydro-4(1H)-pyridinone]
- Inhibition (%) of the number of abdominal cramps (NMRI mouse; dose 10 mg/kg): 55%

Compound: C[C@@H]1C[C@H](O)C[C@H](c2ccccc2)N1.O=C(O)C(=O)O (relative stereo) [Example 22, (2R*,4S*,6R*)-2-Phenyl-6-methyl-4-piperidinol oxalate]
- Delta (s), difference between exploration times for new and familiar object (Wistar rat [1]; dose 0.3 mg/kg, i.p.): 9.98 s
- Delta (s), difference between exploration times for new and familiar object (Wistar rat [1]; dose 3 mg/kg, p.o.): 5.93 s

Compound: CC1=CC(=O)CC(c2cccc(Cl)c2)N1 (racemic) [Example 1, (±)-2-(3-Chlorophenyl)-6-methyl-2,3-dihydro-4(1H)-pyridinone]
- Delta (s), difference between exploration times for new and familiar object (Wistar rat [1]; dose 0.3 mg/kg, i.p.): 7.5 s
- Delta (s), difference between exploration times for new and familiar object (Wistar rat [1]; dose 0.3 mg/kg, p.o.): 9.95 s
- T2 − T1 (s), difference between the recognition times of the 2 encounters (Wistar rat [2]): -36 s
- Inhibition (%) of the number of abdominal cramps (NMRI mouse; dose 10 mg/kg): 51%

Compound: CC1=CC(=O)CC(c2ccc(Cl)cc2)CN1 (racemic) [Example 25, (±)-6-(4-Chlorophenyl)-2-methyl-1,5,6,7-tetrahydro-4H-azepin-4-one]
- Inhibition (%) of the number of abdominal cramps (NMRI mouse; dose 20 mg/kg): 69%

Compound: COc1cccc(C2CC(=O)C=C(C)N2)c1 (racemic) [Example 27, (±)-2-(3-Methoxyphenyl)-6-methyl-2,3-dihydro-4(1H)-pyridinone]
- Delta (s), difference between exploration times for new and familiar object (Wistar rat [1]; dose 3 mg/kg, i.p.): 6.68 s

Compound: CC1=CC(=O)CC(c2ccc(Cl)cc2)N1 (racemic) [Example 24, (±)-2-(4-Chlorophenyl)-6-methyl-2,3-dihydro-4(1H)-pyridinone]
- Delta (s), difference between exploration times for new and familiar object (Wistar rat [1]; dose 3 mg/kg, i.p.): 7.55 s
- T2 − T1 (s), difference between the recognition times of the 2 encounters (Wistar rat [2]): -32 s

Compound: CC1=CC(=O)CC(c2ccsc2)N1 (racemic) [Example 30, (±)-6-Methyl-2-(3-thienyl)-2,3-dihydro-4(1H)-pyridinone]
- Inhibition (%) of the number of abdominal cramps (NMRI mouse; dose 20 mg/kg): 51%

Compound: C[C@@H]1C[C@H](O)C[C@H](c2ccccc2)N1.Cl (relative stereo) [Example 21, (2R*,4S*,6R*)-2-Phenyl-6-methyl-4-piperidinol hydrochloride]
- T2 − T1 (s), difference between the recognition times of the 2 encounters (Wistar rat [2]): -33 s

Compound: CC1=CC(=O)C[C@@H](c2cccc(Cl)c2)N1 [Example 18, (2S)-2-(3-Chlorophenyl)-6-methyl-2,3-dihydro-4-(1H)-pyridinone]
- Delta (s), difference between exploration times for new and familiar object (Wistar rat [1]; dose 1 mg/kg, p.o.): 6.2 s

Compound: CC1=CC(=O)CC(c2cccnc2)N1 (racemic) [Example 36, (±)-6-Methyl-2-(3-pyridyl)-2,3-dihydro-4(1H)-pyridinone]
- T2 − T1 (s), difference between the recognition times of the 2 encounters (Wistar rat [2]): -36 s
